According to patent publication US20230085307A1, “PYRIDAZINONE COMPOUND AND HERBICIDE” (NISSAN CHEMICAL CORPORATION, priority 2019, published 2023):

Assays:
wild oat [1] = test: Test Example 4: herbicidal effect by soil treatment (Table 19, symbol I); type: in vivo, wild oat (Avena fatua); conditions: amount of applied herbicide 320 g/ha
Method in brief: (§1)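 Scoring uses the grading scale of an earlier test, three weeks post-application. Treatment consists of spraying a diluted emulsion formulation across the surface of sterilized diluvial soil in which seeds are buried near 1.5 cm deep; boxes are kept in a greenhouse between 25° C. and 30° C.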

Italian ryegrass [2] = test: Test Example 5: herbicidal effect by foliage application, plastic box (Table 20, symbol K); type: in vivo, Italian ryegrass (Lolium multiflorum); conditions: foliage application, 320 g/ha, three weeks after application
Method in brief: (§2)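 Post-emergence foliar test in sterilized diluvial soil. Compound applied as water-diluted emulsion at a predetermined rate to 14-day-old plants; evaluation at three weeks.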

southern crabgrass [3] = test: Test Example 4: herbicidal effect by soil treatment (Table 19, symbol F); type: in vivo, southern crabgrass (Digitaria ciliaris); conditions: amount of applied herbicide 320 g/ha
Method in brief: as §1

green foxtail [4] = test: Test Example 5: herbicidal effect by foliage application, plastic box (Table 20, symbol G); type: in vivo, green foxtail (Setaria viridis); conditions: foliage application, 320 g/ha, three weeks after application
Method in brief: as §2

rice flat sedge = test: Test Example 3: herbicidal effect by foliage application, Wagner pot (Table 18, symbol E); type: in vivo, rice flat sedge (Cyperus iria); conditions: 320 g/ha
Method in brief: (§3)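 Plants were sown in alluvial soil held under 0.1–0.5 cm standing water and grown 14 days in a greenhouse at 25–30 °C. An emulsifiable formulation, water-diluted to the set dose, was then sprayed onto the foliage, and effects were scored three weeks later using previously defined criteria.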

false cleavers [5] = test: Test Example 4: herbicidal effect by soil treatment (Table 19, symbol Q); type: in vivo, false cleavers (Galium spurium); conditions: amount of applied herbicide 320 g/ha
Method in brief: as §1

barnyard grass [6] = test: Test Example 5: herbicidal effect by foliage application, plastic box (Table 20, symbol H); type: in vivo, barnyard grass (Echinochloa crus-galli); conditions: foliage application, 320 g/ha, three weeks after application
Method in brief: as §2

lambsquarters [7] = test: Test Example 4: herbicidal effect by soil treatment (Table 19, symbol O); type: in vivo, lambsquarters (Chenopodium album); conditions: amount of applied herbicide 320 g/ha
Method in brief: as §1

windgrass [8] = test: Test Example 4: herbicidal effect by soil treatment (Table 19, symbol L); type: in vivo, windgrass (Apera spica-venti); conditions: amount of applied herbicide 320 g/ha
Method in brief: as §1

southern crabgrass [9] = test: Test Example 5: herbicidal effect by foliage application, plastic box (Table 20, symbol F); type: in vivo, southern crabgrass (Digitaria ciliaris); conditions: foliage application, 320 g/ha, three weeks after application
Method in brief: as §2

persian speedwell [10] = test: Test Example 4: herbicidal effect by soil treatment (Table 19, symbol R); type: in vivo, Persian speedwell (Veronica persica); conditions: amount of applied herbicide 320 g/ha
Method in brief: as §1

velvetleaf [11] = test: Test Example 5: herbicidal effect by foliage application, plastic box (Table 20, symbol M); type: in vivo, velvetleaf (Abutilon theophrasti); conditions: foliage application, 320 g/ha, three weeks after application
Method in brief: as §2

blackgrass [12] = test: Test Example 5: herbicidal effect by foliage application, plastic box (Table 20, symbol J); type: in vivo, blackgrass (Alopecurus myosuroides); conditions: foliage application, 320 g/ha, three weeks after application
Method in brief: as §2

Italian ryegrass [13] = test: Test Example 4: herbicidal effect by soil treatment (Table 19, symbol K); type: in vivo, Italian ryegrass (Lolium multiflorum); conditions: amount of applied herbicide 320 g/ha
Method in brief: as §1

velvetleaf [14] = test: Test Example 4: herbicidal effect by soil treatment (Table 19, symbol M); type: in vivo, velvetleaf (Abutilon theophrasti); conditions: amount of applied herbicide 320 g/ha
Method in brief: as §1

persian speedwell [15] = test: Test Example 5: herbicidal effect by foliage application, plastic box (Table 20, symbol R); type: in vivo, Persian speedwell (Veronica persica); conditions: foliage application, 320 g/ha, three weeks after application
Method in brief: as §2

chickweed [16] = test: Test Example 5: herbicidal effect by foliage application, plastic box (Table 20, symbol P); type: in vivo, common chickweed (Stellaria media); conditions: foliage application, 320 g/ha, three weeks after application
Method in brief: as §2

redroot pigweed [17] = test: Test Example 4: herbicidal effect by soil treatment (Table 19, symbol N); type: in vivo, redroot pigweed (Amaranthus retroflexus); conditions: amount of applied herbicide 320 g/ha
Method in brief: as §1

green foxtail [18] = test: Test Example 4: herbicidal effect by soil treatment (Table 19, symbol G); type: in vivo, green foxtail (Setaria viridis); conditions: amount of applied herbicide 320 g/ha
Method in brief: as §1

barnyard grass [19] = test: Test Example 4: herbicidal effect by soil treatment (Table 19, symbol H); type: in vivo, barnyard grass (Echinochloa crus-galli); conditions: amount of applied herbicide 320 g/ha
Method in brief: as §1

windgrass [20] = test: Test Example 5: herbicidal effect by foliage application, plastic box (Table 20, symbol L); type: in vivo, windgrass (Apera spica-venti); conditions: foliage application, 320 g/ha, three weeks after application
Method in brief: as §2

false cleavers [21] = test: Test Example 5: herbicidal effect by foliage application, plastic box (Table 20, symbol Q); type: in vivo, false cleavers (Galium spurium); conditions: foliage application, 320 g/ha, three weeks after application
Method in brief: as §2

lambsquarters [22] = test: Test Example 5: herbicidal effect by foliage application, plastic box (Table 20, symbol O); type: in vivo, lambsquarters (Chenopodium album); conditions: foliage application, 320 g/ha, three weeks after application
Method in brief: as §2

chickweed [23] = test: Test Example 4: herbicidal effect by soil treatment (Table 19, symbol P); type: in vivo, common chickweed (Stellaria media); conditions: amount of applied herbicide 320 g/ha
Method in brief: as §1

redroot pigweed [24] = test: Test Example 5: herbicidal effect by foliage application, plastic box (Table 20, symbol N); type: in vivo, redroot pigweed (Amaranthus retroflexus); conditions: foliage application, 320 g/ha, three weeks after application
Method in brief: as §2

barnyard grass [25] = test: Test Example 3: herbicidal effect by foliage application, Wagner pot (Table 18, symbol H); type: in vivo, barnyard grass (Echinochloa crus-galli); conditions: 320 g/ha
Method in brief: as §3

wild oat [26] = test: Test Example 5: herbicidal effect by foliage application, plastic box (Table 20, symbol I); type: in vivo, wild oat (Avena fatua); conditions: foliage application, 320 g/ha, three weeks after application
Method in brief: as §2

blackgrass [27] = test: Test Example 4: herbicidal effect by soil treatment (Table 19, symbol J); type: in vivo, blackgrass (Alopecurus myosuroides); conditions: amount of applied herbicide 320 g/ha
Method in brief: as §1

Chinese sprangletop = test: Test Example 3: herbicidal effect by foliage application, Wagner pot (Table 18, symbol D); type: in vivo, chinese sprangletop (Leptochloa chinensis); conditions: 320 g/ha
Method in brief: as §3

Row | SMILES | herbicidal effect rating, I: wild oat (wild oat [1]) | herbicidal effect grade, K: Italian ryegrass (Italian ryegrass [2]) | herbicidal effect rating, F: southern crabgrass (southern crabgrass [3]) | herbicidal effect grade, G: green foxtail (green foxtail [4]) | herbicidal effect on E (rice flat sedge), rating 0-5 (rice flat sedge) | herbicidal effect rating, Q: false cleavers (false cleavers [5]) | herbicidal effect grade, H: barnyard grass (barnyard grass [6]) | herbicidal effect rating, O: lambsquarters (lambsquarters [7]) | herbicidal effect rating, L: windgrass (windgrass [8]) | herbicidal effect grade, F: southern crabgrass (southern crabgrass [9]) | herbicidal effect rating, R: persian speedwell (persian speedwell [10]) | herbicidal effect grade, M: velvetleaf (velvetleaf [11]) | herbicidal effect grade, J: blackgrass (blackgrass [12]) | herbicidal effect rating, K: Italian ryegrass (Italian ryegrass [13]) | herbicidal effect rating, M: velvetleaf (velvetleaf [14]) | herbicidal effect grade, R: persian speedwell (persian speedwell [15]) | herbicidal effect grade, P: chickweed (chickweed [16]) | herbicidal effect rating, N: redroot pigweed (redroot pigweed [17]) | herbicidal effect rating, G: green foxtail (green foxtail [18]) | herbicidal effect rating, H: barnyard grass (barnyard grass [19]) | other results
1 | CON=C(C)c1ccc(-c2sc3ccccc3c2-c2c(O)c(C)nn(C)c2=O)cc1 [1-043] | 0 (Herbicidal rate of 5% or less (almost no effect)) | 5 (Herbicidal rate of 90% or more (almost completely withered)) | 0 (Herbicidal rate of 5% or less (almost no effect)) | 4 (Herbicidal rate of 70% or more and less than 90%) | 0 (Herbicidal rate of 5% or less (almost no effect)) | 0 (Herbicidal rate of 5% or less (almost no effect)) | 3 (Herbicidal rate of 40% or more and less than 70%) | 5 (Herbicidal rate of 90% or more (almost completely withered)) | 0 (Herbicidal rate of 5% or less (almost no effect)) | 4 (Herbicidal rate of 70% or more and less than 90%) | 4 (Herbicidal rate of 70% or more and less than 90%) | 5 (Herbicidal rate of 90% or more (almost completely withered)) | 4 (Herbicidal rate of 70% or more and less than 90%) | 5 (Herbicidal rate of 90% or more (almost completely withered)) | 0 (Herbicidal rate of 5% or less (almost no effect)) | 5 (Herbicidal rate of 90% or more (almost completely withered)) | 5 (Herbicidal rate of 90% or more (almost completely withered)) | 5 (Herbicidal rate of 90% or more (almost completely withered)) | 5 (Herbicidal rate of 90% or more (almost completely withered)) | 3 (Herbicidal rate of 40% or more and less than 70%) | herbicidal effect grade, L: windgrass (windgrass [20]): 1 (Herbicidal rate of 5% or more and less than 20%); herbicidal effect grade, Q: false cleavers (false cleavers [21]): 2 (Herbicidal rate of 20% or more and less than 40%); herbicidal effect grade, O: lambsquarters (lambsquarters [22]): 4 (Herbicidal rate of 70% or more and less than 90%); herbicidal effect rating, P: chickweed (chickweed [23]): 4 (Herbicidal rate of 70% or more and less than 90%); herbicidal effect grade, N: redroot pigweed (redroot pigweed [24]): 5 (Herbicidal rate of 90% or more (almost completely withered)); herbicidal effect on H (barnyard grass), rating 0-5 (barnyard grass [25]): 5 (Herbicidal rate of 90% or more (almost completely withered)); herbicidal effect grade, I: wild oat (wild oat [26]): 2 (Herbicidal rate of 20% or more and less than 40%); herbicidal effect rating, J: blackgrass (blackgrass [27]): 0 (Herbicidal rate of 5% or less (almost no effect)); herbicidal effect on D (Chinese sprangletop), rating 0-5 (Chinese sprangletop): 5 (Herbicidal rate of 90% or more (almost completely withered))
2 | COc1c(F)cccc1-c1sc2ccccc2c1-c1c(O)c(C)nn(C)c1=O [1-054] | 0 (Herbicidal rate of 5% or less (almost no effect)) | 4 (Herbicidal rate of 70% or more and less than 90%) | 0 (Herbicidal rate of 5% or less (almost no effect)) | 4 (Herbicidal rate of 70% or more and less than 90%) | 4 (Herbicidal rate of 70% or more and less than 90%) | 0 (Herbicidal rate of 5% or less (almost no effect)) | 3 (Herbicidal rate of 40% or more and less than 70%) | 0 (Herbicidal rate of 5% or less (almost no effect)) | 0 (Herbicidal rate of 5% or less (almost no effect)) | 2 (Herbicidal rate of 20% or more and less than 40%) | 0 (Herbicidal rate of 5% or less (almost no effect)) | 5 (Herbicidal rate of 90% or more (almost completely withered)) | 0 (Herbicidal rate of 5% or less (almost no effect)) | 3 (Herbicidal rate of 40% or more and less than 70%) | 0 (Herbicidal rate of 5% or less (almost no effect)) | 1 (Herbicidal rate of 5% or more and less than 20%) | 5 (Herbicidal rate of 90% or more (almost completely withered)) | 0 (Herbicidal rate of 5% or less (almost no effect)) | 0 (Herbicidal rate of 5% or less (almost no effect)) | 2 (Herbicidal rate of 20% or more and less than 40%) | herbicidal effect grade, L: windgrass (windgrass [20]): 0 (Herbicidal rate of 5% or less (almost no effect)); herbicidal effect grade, Q: false cleavers (false cleavers [21]): 4 (Herbicidal rate of 70% or more and less than 90%); herbicidal effect grade, O: lambsquarters (lambsquarters [22]): 5 (Herbicidal rate of 90% or more (almost completely withered)); herbicidal effect rating, P: chickweed (chickweed [23]): 0 (Herbicidal rate of 5% or less (almost no effect)); herbicidal effect grade, N: redroot pigweed (redroot pigweed [24]): 5 (Herbicidal rate of 90% or more (almost completely withered)); herbicidal effect on H (barnyard grass), rating 0-5 (barnyard grass [25]): 5 (Herbicidal rate of 90% or more (almost completely withered)); herbicidal effect grade, I: wild oat (wild oat [26]): 3 (Herbicidal rate of 40% or more and less than 70%); herbicidal effect rating, J: blackgrass (blackgrass [27]): 3 (Herbicidal rate of 40% or more and less than 70%); herbicidal effect on D (Chinese sprangletop), rating 0-5 (Chinese sprangletop): 3 (Herbicidal rate of 40% or more and less than 70%)
